Patent US10450327B2, “Epidithiodioxopiperazine compound or its derivatives, and the use thereof” (priority 2011, dated 2019)

Columns and labels:
[1] = system: left carotid artery of a PrxII−/− mouse; assay: Wire-injured carotid artery of PrxII−/− mouse; assay type: in vivo; details: filter paper strip soaked in GT solution, 30 minutes; 10th day after injury
Method: In addition, in order to identify the effects of GT on vascular thickening in a PrxII−/− mouse, left carotid artery of a PrxII−/− mouse was damaged using a flexible wire. After the injury, a Whatman No. 1 filter paper strip was soaked in a control vehicle or a GT solution, and the paper was attached to the surface of vascular epithelia for 30 minutes for the solution to permeate into the tissue. The mouse was recovered at the 10th day after the injury. As a result, the ratio of intima versus media measured from the HE-stained carotid artery sample was presented as mean+− standard error (n=8 per group, *p<0.01).

[2] = system: SK-MEL-28 (SK28) melanoma cells; assay: Intracellular hydrogen peroxide, SK28 melanoma cells; assay type: cell-based, human; details: PrxII-deficient SK28 cells, nontoxic level of GT
Method: The intracellular H2O2 level was measured using 5,6-chloromethyl-2′,7′-dichlorodihydrofluorescein diacetate (CM-DCFH-DA, Invitrogen), an oxidation-sensitive fluorescent dye. Human epidermal melanocyte, SK-MEL-5, SK-MEL-28, A375 and G361 cells (3×10^5) were grown in a 35 mm culure dish and infected with retroviruses for 24 hours. After that, the cells were serum-starved for 18 hours, and stimulated with 20% FBS for 10 minutes in a phenol red-free medium. After stimulated as described above, the cells were quickly rinsed with a Krebs-Ringer solution, and incubated with 5 μM CM-DCFH-DA for 5 minutes. 2′,7′-dichlorodihydrofluorescein (DCF) fluorescence was collected for 10 seconds using an inverted Axiovert 200 fluorescence microscope (Zeiss). The relative DCF fluorescence was calculated by averaging the fluorescence intensities of 60 to 80 cells after subtracting the background fluorescence from each image using an ImageQuant™ software (GE Healthcare). The desorbed sphenoid cells were excluded from quantification.
This proves the peroxidase activity of GT. Again, while GT treatment in the SK28 cells reduced Src/ERK activation and β-catenin phosphorylation, it increased the expression of E-cadherin (FIG. 53B). Furthermore, GT reduced the proliferation and the migration responding to serum stimulation in both SK5 and SK28 cells (FIGS. 53C and D).

[3] = system: PrxII knocked down HASMCs; assay: Intracellular hydrogen peroxide (DCF fluorescence), PrxII knocked down HASMCs; assay type: cell-based, human; details: concentration-dependent
Method: First, the ability of GT to eliminate intracellular hydrogen peroxide in PrxII knocked down HASMCs and HAECs was tested. The cellular hydrogen peroxide production was monitored using an oxidant-sensitive fluorescence dye (2′,7′-dihydro-chlorofluorescein diacetate, H2DCF-DA).

[4] = system: balloon-injured rat carotid artery; assay: Balloon-injury model of rat carotid artery; assay type: in vivo
Method: Animal experiments were performed in compliance with the guidelines of Institutional Animal Care and Use Committee (IACUC) of the Ewha Womans University. Balloon injury was created using an infiltrated 2 F Fogarty balloon catheter in the left common carotid artery as follows: after the ten-week-old male Sprague-Dawley rats were anaesthetized by isoflurane gas (N2O:O2/70%:30%) inhalation, the left external carotid artery was exposed, and its branches were electrocoagulated. A catheter was pushed 1 cm in through the transverse arteriotomy of the external carotid artery, and the endothelial denudation was achieved by three passes along the common carotid artery. After the catheter was removed, the punched area was sealed and the clapped common carotid artery was opened for resuming the blood flow. Unless otherwise stated, the rats were recovered in a cage for 10 days, and subjected to histological and immunological analyses.
Rats were anesthetized, and the common carotid artery was excised after transcardiac perfusion-fixation with a heparinized saline solution containing 3.7% formaldehyde. The vessels were paraffin embedded and sectioned using a rotary microtome (Leica RM2255). Two serial tissue sections (4 μm in thickness) were obtained from the middle area of common carotid arteries, and stained with haematoxylin and eosin (HE). The luminal, internal elastic laminal, and external elastic laminal areas were measured using NIH Image v1.62. The intimal and medial areas were determined by subtracting the luminal area from the internal elastic area and subtracting the internal elastic area from the external elastic area. The values from the two serial sections for each rat were averaged for analysis.
For the in vivo injection of siRNA, a siRNA mixture specific to rat PrxII (200 nM) was premixed with a siPORT™ NeoFX™ reagent according to the instructions of the manufacturer (Ambion). Immediately after the balloon injury, the siRNA-injected mixture (200 μL) was injected through a catheter after briefly washed with Opti-MEM. After the incubation for 15 minutes, the blood flow was resumed. A siGLO-Red (Dharmacon), which is fluorescent dye-conjugated control siRNA, was used for optimizing in vivo injection efficiency. Similarly, the ETP compound (200 nM in DMSO) was injected through a catheter and incubated for 30 minutes.
Immunohistochemistry for the overoxidized 2-Cys Prxs was performed on the paraffin sections using an anti-Prx-SO2/3 antibody (1:1000 dilution). Briefly, the sections were de-waxed in xylene and rehydrated in ethanol, and subsequently the antigen retrieval was performed by boiling in a citric buffer solution (pH 6.0). After that, the sections were incubated with a primary antibody for 48 hours at 4° C. After washing three times with a phosphatebuffered saline solution, the sections were incubated with a peroxidase-conjugated secondary antibody and stained with a 3′,3′-diaminobenzidine (DAB) substrate solution. For negative staining, the Prx-502/3 antibody was blocked with the corresponding antigenic peptide (DFTFVC(SO2/3)PTEI). For indirect immunofluorescence staining, the paraffin sections were blocked with 5% normal rabbit serum (Vector Laboratories) in PBST (a PBS solution of 0.3% Triton X-100) for 1 hour at room temperature. The sections were then incubated overnight at 4° C. with the […] against rat smooth muscle α-actin (1:300 dilution) and rat CD31 (PECAM-1, 1:200 dilution). The nuclei were labeled with DAPI. After several PBST washes, the samples were incubated for 2 hours at room temperature with Alexa Fluor 568-conjugated donkey anti-mouse and Alexa Fluor 488-conjugated donkey anti-rabbit IgG antibodies. The fluorescence images were recorded on three random fields per tissue section at a screen magnification of 100× using a LSM 510 Meta confocal microscope equipped with argon and helium-neon lasers.
The paraffin sections were incubated for 10 minutes in PBS containing 0.1% Triton X-100. […]

With `CN1C(=O)[C@]23CC4=CC=C[C@H](O)[C@H]4N2C(=O)[C@@]1(CO)SS3` [gliotoxin] the “vascular thickening (ratio of intima versus media)” value [1] was “markedly reduced”, the “level of intracellular hydrogen peroxide” value [2] was “reduced” and the “level of intracellular hydrogen peroxide increased by PDGF and PrxII knockdown” value [3] was “completely canceled out”. For the same molecule, the “endothelial repair / reendothelialization (CD31 immunofluorescence)” value ([4]; local administration after balloon injury) was “endothelium monolayer in contact with lumen was formed”, the “intimal hyperplasia (ratio of intima versus media, HE staining)” value ([4]; local administration to the lumen through catheter, 30 minutes, ETP derivatives 200 nM, 10 days recovery) was “notably suppressed” and the “cell death by TUNEL staining” value ([4]; nanomolar range, local administration) was “did not induce cell death”. The “luminal surface endothelial cells by scanning electron microscopy” value ([4]; rat, in vivo) was “spread and formed a uniform layer with tight junction” and the “overoxidation of 2-Cys-Prx (Prx-SO2/3 immunohistochemistry) versus control group” value ([4]; rat, in vivo) was “no significant differences”.
